The values below come from patent US12091411B2, “IRAK degraders and uses thereof” (Kymera Therapeutics, Inc., priority 2022, dated 2024).

Read-outs that look alike come from different tables or passages of the source. Some results are limits rather than exact numbers.

The term DC50 denotes the midpoint of the concentration-degradation curve.

The assay deals with T1, IRAK4 (Homo sapiens, UniProt Q9NWZ3).
T1 construct: Degradation of IRAK4 in OCI-LY10 was quantitatively measured using Meso Scale Discovery technology; endogenous in cells; host or cells: OCI-LY10
T1 sequence (Q9NWZ3 1-460): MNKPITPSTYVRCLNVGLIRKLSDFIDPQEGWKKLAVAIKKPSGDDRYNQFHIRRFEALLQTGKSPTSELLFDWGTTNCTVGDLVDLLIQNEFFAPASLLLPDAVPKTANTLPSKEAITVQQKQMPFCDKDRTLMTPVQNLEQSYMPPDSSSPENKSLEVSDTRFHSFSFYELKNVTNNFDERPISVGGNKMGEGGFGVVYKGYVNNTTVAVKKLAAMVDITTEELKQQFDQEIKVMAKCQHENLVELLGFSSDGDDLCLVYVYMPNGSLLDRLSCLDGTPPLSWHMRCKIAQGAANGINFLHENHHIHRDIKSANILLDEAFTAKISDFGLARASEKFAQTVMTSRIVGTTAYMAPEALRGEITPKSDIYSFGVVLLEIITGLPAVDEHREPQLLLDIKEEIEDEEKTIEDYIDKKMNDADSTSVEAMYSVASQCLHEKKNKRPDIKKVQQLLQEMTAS
Description: IRAK4 MSD Degradation in OCI-LY10. The assay is classed as cell-based. Particulars: OCI-LY10 cells, MSD. Summed up:
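DC50, from a three-parameter logistic fit and reported as letter bins A (<0.01 μM), B, C, D (>0.2 μM or not tested), reflects IRAK4 loss measured by MSD electrochemiluminescence in OCI-LY10 lysates. Treatment: 8 doses, 1:3 steps, top 1 to 10 μM, 4 to 24 h, 37 °C.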

The mark [1] stands for this setting: 4 hrs incubation, read-out: IRAK4 degradation in OCI-LY10 at 4 hrs: DC50.
Setting [2] is: 24 hrs incubation, read-out: IRAK4 degradation in OCI-LY10 at 24 hrs: DC50.

For `COc1cc2nn([C@H]3CC[C@H](CN4CCC(c5ccc6c(c5)n(C)c(=O)n6C5CCC(=O)NC5=O)C(F)(F)C4)CC3)cc2cc1NC(=O)c1cccc(C(F)(F)F)n1` (stereo partly shown) [I-463], the DC50 is, setting by setting: under setting [1], more than 200 nM; under setting [2], more than 200 nM.

As for `Cn1c(=O)n(C2CCC(=O)NC2=O)c2ccc(C3=CCN(C[C@H]4CC[C@H](n5cc6cc(NC(=O)c7cccc(C(F)(F)F)n7)ccc6n5)CC4)CC3(F)F)cc21` (stereo partly shown) [I-464], the DC50 runs as follows: under setting [1], more than 200 nM; under setting [2], more than 200 nM.

In the case of `Cn1c(=O)n(C2CCC(=O)NC2=O)c2ccc(C3CCN(C[C@H]4CC[C@H](n5cc6cc(NC(=O)c7cccc(C(F)(F)F)n7)ccc6n5)CC4)CC3(F)F)cc21` (stereo partly shown) [I-465], the DC50 was more than 200 nM under setting [1] and more than 200 nM under setting [2].

`COc1cc2nn([C@H]3CC[C@H](CN4CC=C(c5cccc6c(N7CCC(=O)NC7=O)cncc56)C(F)(F)C4)CC3)cc2cc1NC(=O)c1cccc(C(F)(F)F)n1` [I-466]: the DC50 by setting is: under setting [1], more than 200 nM; under setting [2], more than 200 nM.

For `COc1cc2nn([C@H]3CC[C@H](CN4CCC(c5cccc6c(N7CCC(=O)NC7=O)cncc56)C(F)(F)C4)CC3)cc2cc1NC(=O)c1cccc(C(F)(F)F)n1` (stereo partly shown) [I-467], the DC50 is, setting by setting: under setting [1], more than 200 nM; under setting [2], more than 200 nM.

Consider `O=C1CCN(c2cncc3c(C4=CCN(C[C@H]5CC[C@H](n6cc7cc(NC(=O)c8cccc(C(F)(F)F)n8)ccc7n6)CC5)CC4(F)F)cccc23)C(=O)N1` [I-468], for which the DC50 is more than 200 nM under setting [1] and more than 200 nM under setting [2].

Regarding `O=C1CCN(c2cncc3c(C4CCN(C[C@H]5CC[C@H](n6cc7cc(NC(=O)c8cccc(C(F)(F)F)n8)ccc7n6)CC5)CC4(F)F)cccc23)C(=O)N1` (stereo partly shown) [I-469], the DC50 is, setting by setting: under setting [1], more than 200 nM; under setting [2], more than 200 nM.

With `COc1cc2nn([C@H]3CC[C@H](CN4CC=C(c5ccc6c(N7CCC(=O)NC7=O)cncc6c5)C(F)(F)C4)CC3)cc2cc1NC(=O)c1cccc(C(F)(F)F)n1` [I-470], the DC50 was more than 200 nM under setting [1] and more than 200 nM under setting [2].

For `COc1cc2nn([C@H]3CC[C@H](CN4CCC(c5ccc6c(N7CCC(=O)NC7=O)cncc6c5)C(F)(F)C4)CC3)cc2cc1NC(=O)c1cccc(C(F)(F)F)n1` (stereo partly shown) [I-471], the DC50 is more than 200 nM under setting [1] and more than 200 nM under setting [2].

Turning to `O=C1CCN(c2cncc3cc(C4=CCN(C[C@H]5CC[C@H](n6cc7cc(NC(=O)c8cccc(C(F)(F)F)n8)ccc7n6)CC5)CC4(F)F)ccc23)C(=O)N1` [I-472], the DC50 runs as follows: under setting [1], more than 200 nM; under setting [2], more than 200 nM.

Take `O=C1CCN(c2cncc3cc(C4CCN(C[C@H]5CC[C@H](n6cc7cc(NC(=O)c8cccc(C(F)(F)F)n8)ccc7n6)CC5)CC4(F)F)ccc23)C(=O)N1` (stereo partly shown) [I-473]: the DC50 reads like this: under setting [1], more than 200 nM; under setting [2], more than 200 nM.

Regarding `CN(C[C@H]1CC[C@H](n2cc3cc(NC(=O)c4cccc(C(F)(F)F)n4)ccc3n2)CC1)C1CCN(c2cccc3c2n(C)c(=O)n3C2CCC(=O)NC2=O)CC1(F)F` (stereo partly shown) [I-474], the DC50 by setting is: under setting [1], more than 200 nM; under setting [2], more than 200 nM.

Turning to `COc1cc2nn([C@H]3CC[C@H](CN(C)C4CCN(c5cccc6c5n(C)c(=O)n6C5CCC(=O)NC5=O)CC4(F)F)CC3)cc2cc1NC(=O)c1cccc(C(F)(F)F)n1` (stereo partly shown) [I-475], the DC50 is more than 200 nM under setting [1] and more than 200 nM under setting [2].

As to `CN(C[C@H]1CC[C@H](n2cc3cc(NC(=O)c4cccc(C(F)(F)F)n4)c(C(F)F)cc3n2)CC1)C1CCN(c2cccc3c2n(C)c(=O)n3C2CCC(=O)NC2=O)CC1(F)F` (stereo partly shown) [I-476], the DC50 is more than 200 nM under setting [1] and more than 200 nM under setting [2].

For `CN(C[C@H]1CC[C@H](n2cc3cc(NC(=O)c4cccc(C(F)(F)F)n4)c(C#N)cc3n2)CC1)C1CCN(c2cccc3c2n(C)c(=O)n3C2CCC(=O)NC2=O)CC1(F)F` (stereo partly shown) [I-477], the DC50 by setting is: under setting [1], more than 200 nM; under setting [2], more than 200 nM.

As to `CN(C[C@H]1CC[C@H](n2cc3cc(NC(=O)c4cccc(C(F)(F)F)n4)c([S+](C)[O-])cc3n2)CC1)C1CCN(c2cccc3c2n(C)c(=O)n3C2CCC(=O)NC2=O)CC1(F)F` (stereo partly shown) [I-478], the DC50 by setting is: under setting [1], more than 200 nM; under setting [2], more than 200 nM.

For the molecule `CN(C[C@H]1CC[C@H](n2cc3cc(NC(=O)c4cccc(C(F)(F)F)n4)c(S(C)(=O)=O)cc3n2)CC1)C1CCN(c2cccc3c2n(C)c(=O)n3C2CCC(=O)NC2=O)CC1(F)F` (stereo partly shown) [I-479], the 50% degradation concentration (DC50) was more than 200 nM under setting [1] and more than 200 nM under setting [2].

In the case of `CN(C[C@H]1CC[C@H](n2cc3cc(NC(=O)c4cccc(C(F)(F)F)n4)c(S(C)(=N)=O)cc3n2)CC1)C1CCN(c2cccc3c2n(C)c(=O)n3C2CCC(=O)NC2=O)CC1(F)F` (stereo partly shown) [I-480], the DC50 under setting [1] is more than 200 nM and the DC50 under setting [2] is more than 200 nM.

`CN(C[C@H]1CC[C@H](n2cc(NC(=O)c3cnn4cccnc34)c(C(F)F)n2)CC1)C1CCN(c2ccc3c(c2)n(C)c(=O)n3C2CCC(=O)NC2=O)CC1(F)F` (stereo partly shown) [I-481]: the DC50 is, setting by setting: under setting [1], more than 200 nM; under setting [2], more than 200 nM.

As to `CN(C[C@H]1CC[C@H](n2cc(NC(=O)c3cnn4cccnc34)c(C(F)F)n2)CC1)C1CCN(c2cccc3c2n(C)c(=O)n3C2CCC(=O)NC2=O)CC1F` (stereo partly shown) [I-482], the DC50 by setting is: under setting [1], more than 200 nM; under setting [2], more than 200 nM.

For the molecule `CN(C[C@H]1CC[C@H](n2cc(NC(=O)c3cnn4cccnc34)c(C(F)F)n2)CC1)C1C(F)CN(c2cccc3c2n(C)c(=O)n3C2CCC(=O)NC2=O)CC1F` (stereo partly shown) [I-483], the DC50 runs as follows: under setting [1], more than 200 nM; under setting [2], more than 200 nM.

For `CN(C)c1ccn2ncc(C(=O)Nc3cn([C@H]4CC[C@H](CN(C)C5CCN(c6cccc7c6n(C)c(=O)n7C6CCC(=O)NC6=O)CC5(F)F)CC4)nc3C(F)F)c2n1` (stereo partly shown) [I-484], the half-maximal degradation concentration (DC50) was more than 200 nM under setting [1] and 10 to 100 nM under setting [2].

As for `CN(C[C@H]1CC[C@H](n2cc(NC(=O)c3cnn4cccnc34)c(C(F)F)n2)CC1)C1CCN(c2cccc3c2n(C)c(=O)n3C2CCC(=O)NC2=O)CC1O` (stereo partly shown) [I-486], the DC50 is more than 200 nM under setting [1] and more than 200 nM under setting [2].

For `CN(C[C@]1(O)CC[C@@H](n2cc(NC(=O)c3cnn4cccnc34)c(C(F)F)n2)CC1)C1CCN(c2cccc3c2n(C)c(=O)n3C2CCC(=O)NC2=O)CC1` (stereo partly shown) [I-487], the DC50 is, setting by setting: under setting [1], more than 200 nM; under setting [2], more than 200 nM.

Take `Cn1c(=O)n(C2CCC(=O)NC2=O)c2cccc(C3CCN(C[C@H]4CC[C@H](n5cc6cc(NC(=O)c7cccc(C(F)(F)F)n7)ncc6n5)CC4)CC3(F)F)c21` (stereo partly shown) [I-488]: the DC50 reads like this: under setting [1], more than 200 nM; under setting [2], more than 200 nM.

Regarding `Cn1c(=O)n(C2CCC(=O)NC2=O)c2cccc(C3CCN(C[C@H]4CC[C@H](n5cc6cc(NC(=O)c7cccc(C(F)(F)F)n7)ccc6n5)CC4)CC3(F)F)c21` (stereo partly shown) [I-489], the DC50 was more than 200 nM under setting [1] and more than 200 nM under setting [2].

Turning to `Cn1c(=O)n(C2CCC(=O)NC2=O)c2cccc(C3CCN(C[C@H]4CC[C@H](n5cc6cc(NC(=O)c7cccc(C(F)(F)F)n7)c(C#N)cc6n5)CC4)CC3(F)F)c21` (stereo partly shown) [I-490], the DC50 under setting [1] is more than 200 nM and the DC50 under setting [2] is more than 200 nM.

As to `CO[C@@H]1CN(c2cccc3c2n(C)c(=O)n3C2CCC(=O)NC2=O)C[C@@H]1N(C)C[C@H]1CC[C@H](n2cc3cc(NC(=O)c4cccc(C(F)(F)F)n4)ccc3n2)CC1` (stereo partly shown) [I-491], the DC50 was more than 200 nM under setting [1] and more than 200 nM under setting [2].

Turning to `CO[C@H]1CN(c2cccc3c2n(C)c(=O)n3C2CCC(=O)NC2=O)C[C@@H]1N(C)C[C@H]1CC[C@H](n2cc3cc(NC(=O)c4cccc(C(F)(F)F)n4)ccc3n2)CC1` (stereo partly shown) [I-492], the DC50 under setting [1] is more than 200 nM and the DC50 under setting [2] is more than 200 nM.

Turning to `CO[C@H]1CN(c2cccc3c2n(C)c(=O)n3C2CCC(=O)NC2=O)C[C@H]1N(C)C[C@H]1CC[C@H](n2cc3cc(NC(=O)c4cccc(C(F)(F)F)n4)ccc3n2)CC1` (stereo partly shown) [I-493], the DC50 by setting is: under setting [1], more than 200 nM; under setting [2], more than 200 nM.

Turning to `CO[C@@H]1CN(c2cccc3c2n(C)c(=O)n3C2CCC(=O)NC2=O)C[C@H]1N(C)C[C@H]1CC[C@H](n2cc3cc(NC(=O)c4cccc(C(F)(F)F)n4)ccc3n2)CC1` (stereo partly shown) [I-494], the DC50 reads like this: under setting [1], more than 200 nM; under setting [2], more than 200 nM.

On to `CO[C@@H]1CN(c2cccc3c2n(C)c(=O)n3C2CCC(=O)NC2=O)CC[C@H]1N(C)C[C@H]1CC[C@H](n2cc3cc(NC(=O)c4cccc(C(F)(F)F)n4)ccc3n2)CC1` (stereo partly shown) [I-495], for which the DC50 by setting is: under setting [1], more than 200 nM; under setting [2], more than 200 nM.

With `CO[C@H]1CN(c2cccc3c2n(C)c(=O)n3C2CCC(=O)NC2=O)CC[C@@H]1N(C)C[C@H]1CC[C@H](n2cc3cc(NC(=O)c4cccc(C(F)(F)F)n4)ccc3n2)CC1` (stereo partly shown) [I-496], the DC50 is, setting by setting: under setting [1], more than 200 nM; under setting [2], more than 200 nM.

Consider `CO[C@@H]1CN(c2cccc3c2n(C)c(=O)n3C2CCC(=O)NC2=O)CC[C@@H]1N(C)C[C@H]1CC[C@H](n2cc3cc(NC(=O)c4cccc(C(F)(F)F)n4)ccc3n2)CC1` (stereo partly shown) [I-497], for which the DC50 by setting is: under setting [1], more than 200 nM; under setting [2], more than 200 nM.

As for `CO[C@H]1CN(c2cccc3c2n(C)c(=O)n3C2CCC(=O)NC2=O)CC[C@H]1N(C)C[C@H]1CC[C@H](n2cc3cc(NC(=O)c4cccc(C(F)(F)F)n4)ccc3n2)CC1` (stereo partly shown) [I-498], the DC50 runs as follows: under setting [1], more than 200 nM; under setting [2], more than 200 nM.
